Test results: patent US9796711B2, “Substituted pyrazolo[3,4-b]pyridin-6-carboxylic acids and method of use” (AbbVie S.àr.l., priority 2015, dated 2017)
pEC50: −log10 of the molar value.

Experiments:
[1] = target: T1, ΔF508-CFTR (Homo sapiens, UniProt P13569, DEL508-508); assay: CFTR cell surface levels using HRP-tagged ΔF508-CFTR expressing CFBE cells, in the presence of a co-corrector; type: cell-based; conditions: HRP-tagged ΔF508-CFTR expressing CFBE cells, in the presence of 3 μM co-corrector; for pEC50: read-out: EC50
T1 construct: host or cells: CFBE41o-, doxycycline-inducible
T1 sequence (P13569 with tags, fused parts or gaps DEL508-508): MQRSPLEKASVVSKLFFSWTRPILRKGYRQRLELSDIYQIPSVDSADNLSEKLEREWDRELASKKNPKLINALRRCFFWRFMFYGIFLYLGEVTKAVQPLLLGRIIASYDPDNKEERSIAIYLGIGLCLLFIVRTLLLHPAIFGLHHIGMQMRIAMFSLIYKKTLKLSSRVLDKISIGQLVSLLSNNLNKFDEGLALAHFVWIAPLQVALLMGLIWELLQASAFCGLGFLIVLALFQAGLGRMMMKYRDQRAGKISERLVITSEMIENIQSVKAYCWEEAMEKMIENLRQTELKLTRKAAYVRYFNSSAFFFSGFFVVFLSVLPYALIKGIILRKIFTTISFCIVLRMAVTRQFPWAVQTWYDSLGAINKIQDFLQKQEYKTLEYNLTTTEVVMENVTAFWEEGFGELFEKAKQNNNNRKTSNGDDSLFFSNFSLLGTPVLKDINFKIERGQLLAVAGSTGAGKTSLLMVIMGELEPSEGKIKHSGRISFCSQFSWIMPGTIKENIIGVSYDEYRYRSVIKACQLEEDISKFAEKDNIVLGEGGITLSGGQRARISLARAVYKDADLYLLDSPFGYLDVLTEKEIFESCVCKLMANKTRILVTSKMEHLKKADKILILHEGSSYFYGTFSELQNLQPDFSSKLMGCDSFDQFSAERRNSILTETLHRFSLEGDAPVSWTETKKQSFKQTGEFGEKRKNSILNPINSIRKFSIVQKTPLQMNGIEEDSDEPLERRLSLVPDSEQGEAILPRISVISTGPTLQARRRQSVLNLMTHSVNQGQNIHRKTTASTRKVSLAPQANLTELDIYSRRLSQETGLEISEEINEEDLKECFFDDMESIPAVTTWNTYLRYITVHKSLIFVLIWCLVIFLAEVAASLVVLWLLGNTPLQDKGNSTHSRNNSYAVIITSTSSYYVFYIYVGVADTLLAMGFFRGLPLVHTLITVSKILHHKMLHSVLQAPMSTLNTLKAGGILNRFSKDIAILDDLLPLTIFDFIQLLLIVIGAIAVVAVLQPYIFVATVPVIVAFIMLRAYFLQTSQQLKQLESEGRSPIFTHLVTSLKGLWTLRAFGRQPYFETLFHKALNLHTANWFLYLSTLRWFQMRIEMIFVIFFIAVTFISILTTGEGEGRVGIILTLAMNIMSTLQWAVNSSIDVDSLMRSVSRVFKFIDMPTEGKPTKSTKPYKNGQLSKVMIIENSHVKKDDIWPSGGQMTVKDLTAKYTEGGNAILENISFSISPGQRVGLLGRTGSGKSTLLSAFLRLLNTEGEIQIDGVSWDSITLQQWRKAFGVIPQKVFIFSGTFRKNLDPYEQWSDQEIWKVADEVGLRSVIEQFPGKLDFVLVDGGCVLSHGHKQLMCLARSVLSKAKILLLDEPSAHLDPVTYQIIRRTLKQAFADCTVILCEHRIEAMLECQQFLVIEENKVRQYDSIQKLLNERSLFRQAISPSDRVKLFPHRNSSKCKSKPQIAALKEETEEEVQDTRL
How it was run: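 Cells were seeded with 0.5 μg/mL doxycycline and held 68 h at 37 °C. Test compounds plus 3 μM co-corrector (final 0.1% DMSO) were then added for 20 h at 33 °C. Washed cells received HRP substrate, and luminescence was normalized between DMSO and 3 μM co-corrector controls.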

[2] = target: T1, ΔF508-CFTR; assay: CFTR cell surface levels using HRP-tagged ΔF508-CFTR expressing CFBE cells, intrinsic corrector capacity; type: cell-based; conditions: for pEC50: read-out: EC50
How it was run: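 Here the cells express ΔF508-CFTR with horseradish peroxidase inserted in extracellular loop 4, so only rescued channel at the surface gives luminescent signal. Compounds act on their own, 20 h at the reduced temperature of 33 °C; values are percent activity relative to DMSO and a 3 μM corrector.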

[3] = HRP-tagged ΔF508-CFTR expressing CFBE cells, intrinsic corrector capacity (no co-corrector), 33° C., 20 hours
[4] = HRP-tagged ΔF508-CFTR CFBE cells, compound alone (intrinsic corrector capacity), 20 hours at 33° C.

Compound	% Activation [1]	pEC50 [1]	% Activation [2, 3]	pEC50 [2, 3]	% Activation [2, 4]	pEC50 [2, 4]
CC(C)c1nn(-c2ccc(F)cc2)c2nc(C(=O)O)cc(N3CCC(C(C)N4CCCC4)CC3)c12 (stereo not drawn) [compound 789, 1-(4-fluorophenyl)-3-(propan-2-yl)-4-{4-[1-(pyrrolidin-1-yl)ethyl]piperidin-1-yl}-1H-pyrazolo[3,4-b]pyridine-6-carboxylic acid]	460.95%	6.04	257.05%	6.32	–	–
CC(C)c1nn(-c2ccc(F)cc2)c2nc(C(=O)O)cc(N3CCC(CN4CCCCC4)CC3)c12 [compound 790, 1-(4-fluorophenyl)-4-{4-[(piperidin-1-yl)methyl]piperidin-1-yl}-3-(propan-2-yl)-1H-pyrazolo[3,4-b]pyridine-6-carboxylic acid]	419.1%	6.74	193.7%	6.53	–	–
CO[C@@H]1CCN(CC2CCN(c3cc(C(=O)O)nc4c3c(C3CCC3)nn4-c3ccccc3)CC2)C1 [compound 803, 3-cyclobutyl-4-(4-{[(3R)-3-methoxypyrrolidin-1-yl]methyl}piperidin-1-yl)-1-phenyl-1H-pyrazolo[3,4-b]pyridine-6-carboxylic acid]	436%	6.17	229.35%	5.99	–	–
COC[C@H]1CCN(CC2CCN(c3cc(C(=O)O)nc4c3c(C3CCC3)nn4-c3ccccc3)CC2)C1 [compound 804, 3-cyclobutyl-4-(4-{[(3S)-3-(methoxymethyl)pyrrolidin-1-yl]methyl}piperidin-1-yl)-1-phenyl-1H-pyrazolo[3,4-b]pyridine-6-carboxylic acid]	365%	6.64	191.15%	6.31	–	–
O=C(O)c1cc(N2CCC(CCN3CCOCC3)CC2)c2c(C3CCC3)nn(-c3ccc(F)cc3)c2n1 [compound 810, 3-cyclobutyl-1-(4-fluorophenyl)-4-{4-[2-(morpholin-4-yl)ethyl]piperidin-1-yl}-1H-pyrazolo[3,4-b]pyridine-6-carboxylic acid]	468.7%	7.05	277.6%	6.69	–	–
O=C(O)c1cc(N2CCC(N3CCC(F)CC3)CC2)c2c(C3CCC3)nn(-c3ccc(F)cc3)c2n1 [compound 849, 3-cyclobutyl-4-(4-fluoro[1,4′-bipiperidin]-1′-yl)-1-(4-fluorophenyl)-1H-pyrazolo[3,4-b]pyridine-6-carboxylic acid]	458.6%	6.64	249.1%	6.18	–	–
COCCN1CCN(c2ccc(-c3cc(C(=O)O)nc4c3c(C3CCC3)nn4C3CCCCC3)cn2)CC1 [compound 878, 3-cyclobutyl-1-cyclohexyl-4-{6-[4-(2-methoxyethyl)piperazin-1-yl]pyridin-3-yl}-1H-pyrazolo[3,4-b]pyridine-6-carboxylic acid]	391.3%	7.00	181.05%	6.65	–	–
O=C(O)c1cc(N2CCC(N3CCN(C4CC4)CC3)CC2)c2c(C3CCC3)nn(-c3ccc(F)cc3)c2n1 [compound 886, 3-cyclobutyl-4-[4-(4-cyclopropylpiperazin-1-yl)piperidin-1-yl]-1-(4-fluorophenyl)-1H-pyrazolo[3,4-b]pyridine-6-carboxylic acid]	551.77%	6.29	236.05%	6.33	–	–
O=C(O)c1cc(N2CCC3(CC2)CCN(C2CC2)CC3)c2c(C3CCC3)nn(-c3ccc(F)cc3)c2n1 [compound 887, 3-cyclobutyl-4-(9-cyclopropyl-3,9-diazaspiro[5.5]undecan-3-yl)-1-(4-fluorophenyl)-1H-pyrazolo[3,4-b]pyridine-6-carboxylic acid]	375.13%	6.69	191.35%	6.44	–	–
CC(C)N1CCC2(CCN(c3cc(C(=O)O)nc4c3c(C3CCC3)nn4-c3ccc(F)cc3)CC2)CC1 [compound 890, 3-cyclobutyl-1-(4-fluorophenyl)-4-[9-(propan-2-yl)-3,9-diazaspiro[5.5]undecan-3-yl]-1H-pyrazolo[3,4-b]pyridine-6-carboxylic acid]	406.67%	6.65	179%	6.13	–	–
COC1CCN(C2CCN(c3cc(C(=O)O)nc4c3c(C3CCC3)nn4-c3ccc(F)cc3)CC2)CC1 [compound 892, 3-cyclobutyl-1-(4-fluorophenyl)-4-(4-methoxy[1,4′-bipiperidin]-1′-yl)-1H-pyrazolo[3,4-b]pyridine-6-carboxylic acid]	428.72%	6.22	196.44%	6.22	–	–
O=C(O)c1cc(N2CCC3(CC2)CCN(C2CCC2)CC3)c2c(C3CCC3)nn(-c3ccc(F)cc3)c2n1 [compound 894, 3-cyclobutyl-4-(9-cyclobutyl-3,9-diazaspiro[5.5]undecan-3-yl)-1-(4-fluorophenyl)-1H-pyrazolo[3,4-b]pyridine-6-carboxylic acid]	371.3%	6.66	164%	6.52	–	–
COCCN1CCC2(CC1)CCN(c1cc(C(=O)O)nc3c1c(C1CCC1)nn3-c1ccc(F)cc1)CC2 [compound 897, 3-cyclobutyl-1-(4-fluorophenyl)-4-[9-(2-methoxyethyl)-3,9-diazaspiro[5.5]undecan-3-yl]-1H-pyrazolo[3,4-b]pyridine-6-carboxylic acid]	354.93%	6.73	151.25%	6.46	–	–
O=C(O)c1cc(N2CCC(N3CCC(O)CC3)CC2)c2c(C3CCC3)nn(-c3ccc(F)cc3)c2n1 [compound 898, 3-cyclobutyl-1-(4-fluorophenyl)-4-(4-hydroxy[1,4′-bipiperidin]-1′-yl)-1H-pyrazolo[3,4-b]pyridine-6-carboxylic acid]	393.6%	5.48	231.6%	5.49	–	–
O=C(O)c1cc(N2CCC(N3CCOCC3)CC2)c2c(C3CCC3)nn(-c3cccc(OC(F)F)c3)c2n1 [compound 910, 3-cyclobutyl-1-[3-(difluoromethoxy)phenyl]-4-[4-(morpholin-4-yl)piperidin-1-yl]-1H-pyrazolo[3,4-b]pyridine-6-carboxylic acid]	499.9%	7.10	286.2%	6.73	–	–
CC(F)(F)c1cccc(-n2nc(C3CCC3)c3c(N4CCC(N5CCOCC5)CC4)cc(C(=O)O)nc32)c1 [compound 915]	587.95%	7.30	–	–	386.2%	6.40
CC(C)Oc1cccc(-n2nc(C3CCC3)c3c(N4CCC(N5CCOCC5)CC4)cc(C(=O)O)nc32)n1 [compound 924, 3-cyclobutyl-4-[4-(morpholin-4-yl)piperidin-1-yl]-1-{6-[(propan-2-yl)oxy]pyridin-2-yl}-1H-pyrazolo[3,4-b]pyridine-6-carboxylic acid]	609.82%	6.86	–	–	374.45%	6.38
CC(C)Oc1nn(C2CCCCC2)c2nc(C(=O)O)cc(-c3ccc(CN4CC(N(C)C)C4)cc3)c12 [compound 927, 1-cyclohexyl-4-(4-{[3-(dimethylamino)azetidin-1-yl]methyl}phenyl)-3-[(propan-2-yl)oxy]-1H-pyrazolo[3,4-b]pyridine-6-carboxylic acid]	362.92%	5.96	–	–	150.78%	5.90
